According to ChEMBL document CHEMBL1201862, “PubChem BioAssay data set” (2004):
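Step 1: Grow cells in 96-well plates. Step 2: Expose to compound for 48 hours at 5 concentrations. Step 3: Interpolate endpoints linearly; if unreached, use highest concentration. GI50 marks 50% less growth.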 Calls of active or inactive are those of the source. No stated cut-off is given here; in the data, active = GI50 up to about 1.1 µM and inactive = higher.

Key:
Test in all cases: DTP human tumour cell line panel, 48 h
[1] = tested on: 786-0
[2] = tested on: A549
[3] = tested on: ACHN
[4] = tested on: BT-549
[5] = tested on: CAKI-1
[6] = tested on: CCRF-CEM
[7] = tested on: COLO 205
[8] = tested on: DU-145
[9] = tested on: EKVX
[10] = tested on: HCT-116
[11] = tested on: HCT-15
[12] = tested on: HL-60
[13] = tested on: HOP-62
[14] = tested on: HOP-92
[15] = tested on: HT-29
[16] = tested on: Hs-578T
[17] = tested on: IGROV-1
[18] = tested on: K562
[19] = tested on: KM12
[20] = tested on: LOX IMVI
[21] = tested on: M14
[22] = tested on: MDA-MB-231
[23] = tested on: MDA-MB-435
[24] = tested on: MDA-N
[25] = tested on: MOLT-4
[26] = tested on: Malme-3M
[27] = tested on: NCI-H226
[28] = tested on: NCI-H23
[29] = tested on: NCI-H522
[30] = tested on: NCI/ADR-RES
[31] = tested on: OVCAR-3
[32] = tested on: OVCAR-4
[33] = tested on: OVCAR-5
[34] = tested on: OVCAR-8
[35] = tested on: PC-3
[36] = tested on: RPMI-8226
[37] = tested on: RXF 393
[38] = tested on: SF-268
[39] = tested on: SF-295
[40] = tested on: SK-MEL-28
[41] = tested on: SK-MEL-2
[42] = tested on: SK-MEL-5
[43] = tested on: SK-OV-3
[44] = tested on: SN12C
[45] = tested on: SNB-19
[46] = tested on: SNB-75
[47] = tested on: SW-620
[48] = tested on: T47D
[49] = tested on: TK-10
[50] = tested on: U-251
[51] = tested on: UACC-257
[52] = tested on: UACC-62
[53] = tested on: UO-31
[54] = tested on: MCF7
[55] = tested on: NCI-H460
[56] = tested on: SF-539

Measured: GI50

Cc1ccccc1/N=N/c1c(O)ccc2ccccc12
inactive: [1] 48.9 µM | [2] 69.3 µM | [3] > 100 µM | [4] > 100 µM | [5] > 100 µM | [6] > 100 µM | [7] > 100 µM | [8] > 100 µM | [9] 47.6 µM | [10] 69.5 µM | [12] > 100 µM | [13] 48.1 µM | [14] > 100 µM | [15] > 100 µM | [16] 49.3 µM | [17] 59.2 µM | [18] > 100 µM | [19] 16.4 µM | [20] 40.5 µM | [21] > 100 µM | [22] > 100 µM | [23] > 100 µM | [24] > 100 µM | [25] > 100 µM | [26] > 100 µM | [27] > 100 µM | [28] > 100 µM | [29] > 100 µM | [30] > 100 µM | [31] > 100 µM | [32] 70.5 µM | [33] > 100 µM | [34] > 100 µM | [35] > 100 µM | [36] > 100 µM | [37] > 100 µM | [38] 62.4 µM | [39] 77.1 µM | [40] > 100 µM | [41] > 100 µM | [42] > 100 µM | [43] > 100 µM | [44] > 100 µM | [45] > 100 µM | [46] > 100 µM | [47] > 100 µM | [48] 59.3 µM | [49] > 100 µM | [50] 70.1 µM | [51] > 100 µM | [52] > 100 µM | [53] > 100 µM
> 100 µM: [11]

CNC(=O)NS(=O)(=O)c1ccc(C)cc1.NS(=O)O
> 100 µM: [11]
inactive: [1] > 100 µM | [2] > 100 µM | [3] > 100 µM | [4] > 100 µM | [6] > 100 µM | [7] > 100 µM | [8] > 100 µM | [10] > 100 µM | [12] > 100 µM | [13] > 100 µM | [14] > 100 µM | [15] > 100 µM | [16] > 100 µM | [17] > 100 µM | [18] > 100 µM | [19] > 100 µM | [20] > 100 µM | [21] > 100 µM | [54] > 100 µM | [22] > 100 µM | [24] > 100 µM | [25] > 100 µM | [26] > 100 µM | [28] > 100 µM | [55] > 100 µM | [29] > 100 µM | [30] > 100 µM | [32] > 100 µM | [33] > 100 µM | [34] > 100 µM | [35] > 100 µM | [36] > 100 µM | [37] > 100 µM | [38] > 100 µM | [39] > 100 µM | [56] > 100 µM | [40] > 100 µM | [41] > 100 µM | [42] > 100 µM | [43] > 100 µM | [44] > 100 µM | [45] > 100 µM | [46] > 100 µM | [47] > 100 µM | [48] > 100 µM | [49] > 100 µM | [50] > 100 µM | [51] > 100 µM | [52] > 100 µM | [53] > 100 µM
